Converted amounts (≈) assume the structure as drawn. Blank lines part the entries; values can stand above or below the compound they belong to.
How the values were obtained:
Assay type in all cases: physicochemical
[1] = Effect of sodium chloride on the solubility of Compound A, B and C (aqueous saturated solutions); conditions: for solubility: thermodynamic from solid; for Precipitation: aqueous saturated solution
Experimental: Sodium chloride was added to thus obtained aqueous saturated solution of Compound A, B, and C respectively in an amount to give 0.4% NaCl solution and the mixture was stirred.
Similarly, the saturated aqueous solution of Compound A-C was added with sodium chloride in an amount to give 0.85% solution, and precipitation and solubility were observed.

[2] = Effect of the additives on solubility of Compound C (aqueous saturated solution)
Experimental: To the saturated solution of Compound C prepared in the same manner as test example 1, glycerin in an amount to give 2.5% solution was added and the mixture was stirred. Similarly, mannitol in an amount to give 3.5% solution, boric acid in an amount to give 2% solution, potassium chloride in an amount to give 0.2% solution, disodium hydrogenphosphate in an amount to give 1% and sodium citrate in an amount to give 1% solution were added to the aqueous saturated solution of Compound C respectively. Precipitation and solubility, i.e. the change of the concentration of Compound C in the solution or supernatant were observed.

[3] = Effect of the additives on the stability of the aqueous solution comprising Compound C, stored at 40° C. in LDPE container
[4] = Effect of the additives on the stability of the aqueous solution comprising Compound D, stored at 40° C. in LDPE container; conditions: Compound D 0.3%
Experimental: Compound D was added with glycerin and distilled water and stirred to give clear aqueous solution (Conc. of Compound D: 0.3%, conc. of glycerin: 2.5%, about pH 6). Thus obtained solution was stored at 40° C. in the LDPE container and concentration of Compound D in the solution was observed over time.

[5] = aqueous saturated solution with 0.4% NaCl, saline or isotonic, conc. in solution or supernatant, NaCl 0.4%
[6] = aqueous saturated solution with 0.85% NaCl, saline or isotonic, conc. in solution or supernatant, NaCl 0.85%
[7] = distilled water (injection grade), aqueous saturated solution in distilled water, NaCl 0%, A about pH 7, B about pH 3 (HCl), C about pH 7 (HCl)
[8] = Boric acid 1.68% and borax 0.018%, 40° C., 1 month
[9] = Boric acid 1.68% and borax 0.018%, 40° C., 3 months
[10] = Boric acid 1.68% and borax 0.018%, 40° C., 6 months

% Solubulity ([1]; NaCl 0% (reference)): =100%
% Solubulity ([1]; NaCl 0.4%, vs 0% NaCl): 31%
% Solubulity ([1]; NaCl 0.85%, vs 0% NaCl): 20%
solubility [1, 5]: 1110 µg/mL (≈ 3.66 mM)
solubility [1, 6]: 690 µg/mL (≈ 2.27 mM)
Precipitation ([1]; conc. of NaCl 0%): no
Precipitation ([1]; conc. of NaCl 0.4%): yes
Precipitation ([1]; conc. of NaCl 0.85%): yes
solubility [1, 7]: 3550 µg/mL (≈ 11.7 mM)
SMILES: CC(=O)Nc1nc(CCc2ccc(NC(=N)N)cc2)cs1 [Compound A]

% Solubulity ([1]; NaCl 0% (reference)): =100%
% Solubulity ([1]; NaCl 0.4%, vs 0% NaCl): 100%
% Solubulity ([1]; NaCl 0.85%, vs 0% NaCl): 100%
solubility [1, 5]: 1170 µg/mL (≈ 4.02 mM)
solubility [1, 6]: 1190 µg/mL (≈ 4.08 mM)
Precipitation ([1]; conc. of NaCl 0%): no
Precipitation ([1]; conc. of NaCl 0.4%): no
Precipitation ([1]; conc. of NaCl 0.85%): no
solubility [1, 7]: 1120 µg/mL (≈ 3.84 mM)
SMILES: CC(=O)Nc1nc(CCc2ccc(CON)cc2)cs1 [Compound B]

% Solubulity ([1]; NaCl 0% (reference)): =100%
% Solubulity ([1]; NaCl 0.4%, vs 0% NaCl): 16%
% Solubulity ([1]; NaCl 0.85%, vs 0% NaCl): 8%
solubility [1, 5]: 1760 µg/mL (≈ 3.73 mM)
solubility [1, 6]: 860 µg/mL (≈ 1.82 mM)
Precipitation ([1]; conc. of NaCl 0%): no
Precipitation ([1]; conc. of NaCl 0.4%): yes
Precipitation ([1]; conc. of NaCl 0.85%): yes
solubility [1, 7]: 10700 µg/mL (≈ 22.8 mM)
B/A ratio ([2]; Boric acid 2%): 100%
Conc. of C/w additive (B) ([2]; Boric acid 2%): 11590 µg/mL
Precipitation ([2]; Boric acid 2%): no
B/A ratio ([2]; Glycerin 2.5%): 95%
Conc. of C/w additive (B) ([2]; Glycerin 2.5%): 10910 µg/mL
Precipitation ([2]; Glycerin 2.5%): no
B/A ratio ([2]; Mannitol 3.5%): 96%
Conc. of C/w additive (B) ([2]; Mannitol 3.5%): 11050 µg/mL
Precipitation ([2]; Mannitol 3.5%): no
B/A ratio ([2]; Potassium Chloride 0.2%): 29%
Conc. of C/w additive (B) ([2]; Potassium Chloride 0.2%): 3160 µg/mL
Precipitation ([2]; Potassium Chloride 0.2%): yes
solubility thermodynamic ([2]; aqueous saturated solution, pH 7, water, thermodynamic from solid, saturated solution before adding Mannitol 3.5%, read-out: Conc. of C w/o additive (A)): 11500 µg/mL (≈ 24.4 mM)
B/A ratio ([2]; disodium hydrogenphosphate 1%): 24%
Conc. of C/w additive (B) ([2]; disodium hydrogenphosphate 1%): 2540 µg/mL
Precipitation ([2]; disodium hydrogenphosphate 1%): yes
Conc. of C w/o additive (A) ([2]; saturated solution before adding Boric acid 2%): 11510 µg/mL
Conc. of C w/o additive (A) ([2]; saturated solution before adding Glycerin 2.5%): 11510 µg/mL
Conc. of C w/o additive (A) ([2]; saturated solution before adding Potassium Chloride 0.2%): 10730 µg/mL
Conc. of C w/o additive (A) ([2]; saturated solution before adding disodium hydrogenphosphate 1%): 10730 µg/mL
Conc. of C w/o additive (A) ([2]; saturated solution before adding sodium citrate 1%): 10730 µg/mL
B/A ratio ([2]; sodium citrate 1%): 4%
Conc. of C/w additive (B) ([2]; sodium citrate 1%): 480 µg/mL
Precipitation ([2]; sodium citrate 1%): yes
Change in Concentration of Compound C (vs the initial conc.) [3, 8]: 104.9%
Change in Concentration of Compound C (vs the initial conc.) [3, 9]: 106.2%
Change in Concentration of Compound C (vs the initial conc.) [3, 10]: 108.2%
Change in Concentration of Compound C (vs the initial conc.) ([3]; Boric acid 1.68% and borax 0.018%, 40° C., Initial): =100%
Change in Concentration of Compound C (vs the initial conc.) ([3]; Glycerin 2.5%, Compound C 0.3%, about pH 6, 40° C., 1 month): 105.4%
Change in Concentration of Compound C (vs the initial conc.) ([3]; Glycerin 2.5%, Compound C 0.3%, about pH 6, 40° C., 3 months): 110.6%
Change in Concentration of Compound C (vs the initial conc.) ([3]; Glycerin 2.5%, Compound C 0.3%, about pH 6, 40° C., 6 months): 112.3%
Change in Concentration of Compound C (vs the initial conc.) ([3]; Glycerin 2.5%, Compound C 0.3%, about pH 6, 40° C., Initial): =100%
Change in Concentration of Compound C (vs the initial conc.) ([3]; Mannitol 4.7%, 40° C., 1 month): 103.7%
Change in Concentration of Compound C (vs the initial conc.) ([3]; Mannitol 4.7%, 40° C., 3 months): 108.4%
Change in Concentration of Compound C (vs the initial conc.) ([3]; Mannitol 4.7%, 40° C., 6 months): 109.6%
Change in Concentration of Compound C (vs the initial conc.) ([3]; Mannitol 4.7%, 40° C., Initial): =100%
SMILES: CC(=O)Nc1nc(CCc2ccc(NC(=N)N)cc2)c(Cc2ccc(S(C)(=O)=O)cc2)s1 [Compound C]

Change in Concentration of Compound D (vs the initial conc.) [4, 8]: 99.7%
Change in Concentration of Compound D (vs the initial conc.) [4, 9]: 105.8%
Change in Concentration of Compound D (vs the initial conc.) [4, 10]: 102.6%
Change in Concentration of Compound D (vs the initial conc.) ([4]; Boric acid 1.68% and borax 0.018%, 40° C., initial): =100%
Change in Concentration of Compound D (vs the initial conc.) ([4]; Glycerin 2.5%, about pH 6, 40° C., 1 month): 100.8%
Change in Concentration of Compound D (vs the initial conc.) ([4]; Glycerin 2.5%, about pH 6, 40° C., 3 months): 107.7%
Change in Concentration of Compound D (vs the initial conc.) ([4]; Glycerin 2.5%, about pH 6, 40° C., 6 months): 104.4%
Change in Concentration of Compound D (vs the initial conc.) ([4]; Glycerin 2.5%, about pH 6, 40° C., initial): =100%
SMILES: CC(=O)Nc1nc(CCc2ccc(NC(=N)N)cc2)c(Cc2ccc(S(C)(=O)=O)cc2)s1.Cl [Compound D]
